These results are taken from patent US20260306638A1, “COMPOUNDS AND USES THEREOF” (FOGHORN THERAPEUTICS INC., priority 2023, published 2026).

For one assay, the target named is T1, HiBit-BRM fusion protein (Homo sapiens, UniProt P51531).
T1 construct: HiBiT; expressed in transfected cells
Description: HiBiT-BRM degradation in a stable HeLa cell line (cell-based degradation assay, Nano-Glo HiBiT Lytic Detection). Conditions: HeLa cells, 24 h; for Dmax: human, 30 μM top dose, read-out: BRM HiBit Degradation Maximum. How it is done: (§1) Procedure: A stable HeLa cell line expressing HiBiT-BRM was generated. On day 0, 5000 cells were seeded in 40 μL of media into each well of 384-well cell culture plates. On day 1, cells were treated with 120 nL DMSO or 120 nL of 3-fold serially DMSO-diluted compounds (10 points in duplicate with 30 µM as final top dose). Subsequently plates were incubated for 24 h in a standard tissue culture incubator and equilibrated at room temperature for 15 minutes. Nano-Glo HiBiT Lytic Detection System (Promega N3050) reagent was freshly prepared and 20 μl was added to each well. Upon addition of this LgBit-containing reagent, the HiBIT and LgBiT proteins associate to form the luminescent NanoBiT luciferase. The plates were shaken for 10 minutes at room temperature and the bioluminescence read using an En Vision plate reader (PerkinElmer).
(§2) The degradation % was calculated using the following formula: % degradation=100%−100%×(Lumsample−LumLC)/(LumHC−LumLC). DMSO treated cells are employed as High Control (HC) and 2 μM of a known BRM/BRG1 degrader standard treated cells are employed as Low Control (LC).

Assay [1] concerns the target T2, HiBit-BRG1 fusion protein (Homo sapiens, UniProt P51532).
T2 construct: HiBiT; expressed in transfected cells
Put plainly: HiBit-BRG1 degradation in a stable HeLa cell line expressing HiBit-BRG1 and LgBit (cell-based degradation assay). Conditions: HeLa cells, 24 h; for Dmax: human, 30 μM top dose, read-out: BRG1 HiBit Degradation Maximum. As for the experimental part:
as §1
For measurement of BRG1 degradation, a stable HeLa cell line expressing HiBit-BRG1 and LgBit was generated. The same protocol as above was then followed.
as §2
A general note: The HiBiT peptide binds its large partner to form an active luciferase.

T2 sequence (P51532 whole entry, the tested form may be a part): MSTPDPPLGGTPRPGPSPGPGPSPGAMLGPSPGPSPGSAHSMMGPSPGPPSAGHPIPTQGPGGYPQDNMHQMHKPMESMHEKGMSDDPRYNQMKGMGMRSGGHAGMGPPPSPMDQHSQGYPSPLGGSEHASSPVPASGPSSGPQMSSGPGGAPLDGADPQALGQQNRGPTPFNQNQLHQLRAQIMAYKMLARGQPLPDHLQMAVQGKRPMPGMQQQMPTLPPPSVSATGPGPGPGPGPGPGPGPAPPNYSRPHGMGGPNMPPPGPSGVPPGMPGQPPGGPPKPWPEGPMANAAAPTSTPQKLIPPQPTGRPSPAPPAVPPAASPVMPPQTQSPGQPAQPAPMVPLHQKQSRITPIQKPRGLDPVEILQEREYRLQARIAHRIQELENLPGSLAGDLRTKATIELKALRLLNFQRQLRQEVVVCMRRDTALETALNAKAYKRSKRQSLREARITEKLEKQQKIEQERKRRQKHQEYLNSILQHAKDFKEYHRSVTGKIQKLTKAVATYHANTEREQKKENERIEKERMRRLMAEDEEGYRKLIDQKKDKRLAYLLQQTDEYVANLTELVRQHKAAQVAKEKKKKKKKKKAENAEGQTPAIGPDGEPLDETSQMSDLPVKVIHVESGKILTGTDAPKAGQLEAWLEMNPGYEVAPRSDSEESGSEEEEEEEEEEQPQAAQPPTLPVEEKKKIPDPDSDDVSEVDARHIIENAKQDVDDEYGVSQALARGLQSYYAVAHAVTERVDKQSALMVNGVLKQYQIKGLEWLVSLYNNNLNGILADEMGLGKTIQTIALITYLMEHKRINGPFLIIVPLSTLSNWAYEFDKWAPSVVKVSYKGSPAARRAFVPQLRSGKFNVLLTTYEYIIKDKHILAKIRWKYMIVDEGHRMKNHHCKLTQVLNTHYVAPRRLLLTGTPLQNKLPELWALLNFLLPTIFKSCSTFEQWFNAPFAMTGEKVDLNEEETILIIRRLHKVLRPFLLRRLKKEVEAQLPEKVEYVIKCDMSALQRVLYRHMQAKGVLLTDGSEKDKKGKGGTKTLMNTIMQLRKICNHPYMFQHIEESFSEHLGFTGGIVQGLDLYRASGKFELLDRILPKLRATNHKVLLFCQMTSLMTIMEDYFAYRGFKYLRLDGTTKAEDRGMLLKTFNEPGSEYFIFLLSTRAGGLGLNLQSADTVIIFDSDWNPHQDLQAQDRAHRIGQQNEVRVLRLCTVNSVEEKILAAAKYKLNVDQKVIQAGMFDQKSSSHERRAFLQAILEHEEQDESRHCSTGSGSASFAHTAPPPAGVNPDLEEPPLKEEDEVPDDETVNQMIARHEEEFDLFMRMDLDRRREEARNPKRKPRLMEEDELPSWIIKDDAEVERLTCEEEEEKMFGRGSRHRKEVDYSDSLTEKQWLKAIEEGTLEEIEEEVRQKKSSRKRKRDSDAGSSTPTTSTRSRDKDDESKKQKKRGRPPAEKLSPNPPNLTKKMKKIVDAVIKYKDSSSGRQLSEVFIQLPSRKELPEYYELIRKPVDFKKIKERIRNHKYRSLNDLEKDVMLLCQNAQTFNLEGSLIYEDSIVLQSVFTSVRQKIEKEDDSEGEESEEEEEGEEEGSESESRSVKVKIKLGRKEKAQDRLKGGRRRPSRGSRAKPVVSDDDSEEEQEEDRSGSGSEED
T1 sequence (P51531 whole entry, the tested form may be a part): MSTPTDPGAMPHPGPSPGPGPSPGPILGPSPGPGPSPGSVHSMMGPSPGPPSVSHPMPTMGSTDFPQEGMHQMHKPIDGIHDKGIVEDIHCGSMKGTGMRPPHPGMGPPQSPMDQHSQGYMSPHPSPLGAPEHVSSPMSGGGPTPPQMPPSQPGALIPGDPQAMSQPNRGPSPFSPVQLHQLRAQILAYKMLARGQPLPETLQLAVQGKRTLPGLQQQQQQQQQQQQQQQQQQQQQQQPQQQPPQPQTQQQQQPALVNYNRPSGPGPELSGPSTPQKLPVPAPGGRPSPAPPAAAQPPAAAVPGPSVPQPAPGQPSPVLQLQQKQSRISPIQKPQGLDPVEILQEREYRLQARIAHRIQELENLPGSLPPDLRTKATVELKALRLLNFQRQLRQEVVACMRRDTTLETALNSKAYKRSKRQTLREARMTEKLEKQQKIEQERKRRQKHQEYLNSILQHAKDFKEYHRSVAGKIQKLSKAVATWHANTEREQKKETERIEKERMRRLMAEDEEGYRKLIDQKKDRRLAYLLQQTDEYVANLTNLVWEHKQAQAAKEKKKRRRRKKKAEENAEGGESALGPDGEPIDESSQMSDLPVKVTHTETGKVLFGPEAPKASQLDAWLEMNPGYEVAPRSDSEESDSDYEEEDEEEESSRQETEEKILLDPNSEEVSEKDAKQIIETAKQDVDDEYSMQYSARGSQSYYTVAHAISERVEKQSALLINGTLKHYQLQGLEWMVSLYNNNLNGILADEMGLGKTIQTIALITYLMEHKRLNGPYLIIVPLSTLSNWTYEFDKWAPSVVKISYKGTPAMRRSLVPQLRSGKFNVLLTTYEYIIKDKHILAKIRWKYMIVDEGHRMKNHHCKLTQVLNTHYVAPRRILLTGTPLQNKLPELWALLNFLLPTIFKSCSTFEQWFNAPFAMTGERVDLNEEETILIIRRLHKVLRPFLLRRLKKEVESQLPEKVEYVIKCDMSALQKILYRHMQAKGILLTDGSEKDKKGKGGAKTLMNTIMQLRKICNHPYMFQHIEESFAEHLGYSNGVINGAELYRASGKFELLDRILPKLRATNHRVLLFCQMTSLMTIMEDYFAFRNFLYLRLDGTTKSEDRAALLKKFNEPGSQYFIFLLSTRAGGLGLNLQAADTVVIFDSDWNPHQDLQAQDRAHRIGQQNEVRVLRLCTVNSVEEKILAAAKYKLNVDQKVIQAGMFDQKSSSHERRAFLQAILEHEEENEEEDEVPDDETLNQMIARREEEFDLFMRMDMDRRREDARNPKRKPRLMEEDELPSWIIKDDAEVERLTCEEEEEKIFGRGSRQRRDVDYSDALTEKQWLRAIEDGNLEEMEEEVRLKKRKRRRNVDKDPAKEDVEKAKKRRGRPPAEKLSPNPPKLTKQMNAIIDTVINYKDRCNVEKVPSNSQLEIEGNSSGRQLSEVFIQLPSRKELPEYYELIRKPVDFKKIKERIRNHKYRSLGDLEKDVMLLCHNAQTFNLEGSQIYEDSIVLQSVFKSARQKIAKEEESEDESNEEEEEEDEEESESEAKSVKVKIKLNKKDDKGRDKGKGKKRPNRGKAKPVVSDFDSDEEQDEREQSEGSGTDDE

Broadly, the DC50 is the concentration giving 50% degradation. In the case of `Cc1ncsc1-c1ccc([C@H](C)NC(=O)[C@@H]2C[C@@H](O)CN2C(=O)[C@@H](c2cc(N3CC4(C3)CN(c3cc5nnc(-c6ccccc6O)cc5n(C)c3=O)C4)no2)C(C)C)cc1` (single isomer, unassigned) [Compound 4], the DC50 at HiBit-BRM fusion protein is under 10 nM. For the same molecule, the figures for the Dmax (at HiBit-BRM fusion protein; in assay [1]) were at least 75% and under 50%, respectively.

At HiBit-BRM fusion protein, `Cc1ncsc1-c1ccc([C@H](C)NC(=O)[C@@H]2C[C@@H](O)CN2C(=O)[C@@H](c2cc(N3CC4(C3)CN(c3ccc5nnc(-c6ccccc6O)cc5n3)C4)no2)C(C)C)cc1` [Compound 1, (2S,4R)-4-hydroxy-1-[(2R)-2-(3-{6-[3-(2-hydroxyphenyl)pyrido[3,2-c]pyridazin-6-yl]-2,6-diazaspiro[3.3]heptan-2-yl}-1,2-oxazol-5-yl)-3-methylbutanoyl]-N-[(1S)-1-[4-(4-methyl-1,3-thiazol-5-yl)phenyl]ethyl]pyrrolidine-2-carboxamide] displayed a DC50 of under 10 nM. Also, the Dmax at HiBit-BRM fusion protein was at least 75%; in assay [1], under 50%.

As to `Cc1ncsc1-c1ccc([C@H](C)NC(=O)[C@@H]2C[C@@H](O)CN2C(=O)[C@H](C(C)C)n2cc(-c3ccc4nnc(-c5ccccc5O)cc4n3)nn2)cc1` [Compound 2, (2S,4R)-4-hydroxy-1-[(2S)-2-{4-[3-(2-hydroxyphenyl)pyrido[3,2-c]pyridazin-6-yl]-1,2,3-triazol-1-yl}-3-methylbutanoyl]-N-[(1S)-1-[4-(4-methyl-1,3-thiazol-5-yl)phenyl]ethyl]pyrrolidine-2-carboxamide], the DC50 (on HiBit-BRM fusion protein; in assay [1] (read-out: BRMG1 HiBit Degradation DC50)) was under 10 nM in each case. Moreover, the Dmax (on HiBit-BRM fusion protein; in assay [1]) was at least 75% throughout.

As to `Cc1nc2cc(-c3ccccc3O)nnc2cc1N1CC2(CN(c3cc([C@H](C(=O)N4C[C@H](O)C[C@H]4C(=O)N[C@@H](C)c4ccc(-c5scnc5C)cc4)C(C)C)on3)C2)C1` [Compound 3, (2S,4R)-4-hydroxy-1-[(2R)-2-(3-{6-[3-(2-hydroxyphenyl)-6-methylpyrido[3,2-c]pyridazin-7-yl]-2,6-diazaspiro[3.3]heptan-2-yl}-1,2-oxazol-5-yl)-3-methylbutanoyl]-N-[(1S)-1-[4-(4-methyl-1,3-thiazol-5-yl)phenyl]ethyl]pyrrolidine-2-carboxamide], on HiBit-BRM fusion protein, the DC50 was under 10 nM and the Dmax is at least 75%. Besides, the Dmax in assay [1] is under 50%.
